Measurements reported in patent publication US20140235578A1, “METHODS FOR TREATING NEOPLASIA AND FOR IDENTIFYING COMPOSITIONS USEFUL IN SUCH THERAPY” (priority 2007, published 2014).

Assays:
[1] = target: purified recombinant human Top2β (Homo sapiens, UniProt Q02880); experiment: In vitro DNA cleavage assay (Bodley et al.), Top2β; type: biochemical; settings: for Poisoning activity against Top2β: DNA cleavage, purified recombinant human Top2β; for activity against Top2β: as stated in Table 2; as to Poisoning activity against Top2β: key: each + represent roughly 10-fold in activity; −: non-detectable
Chain of purified recombinant human Top2β (Q02880 whole entry): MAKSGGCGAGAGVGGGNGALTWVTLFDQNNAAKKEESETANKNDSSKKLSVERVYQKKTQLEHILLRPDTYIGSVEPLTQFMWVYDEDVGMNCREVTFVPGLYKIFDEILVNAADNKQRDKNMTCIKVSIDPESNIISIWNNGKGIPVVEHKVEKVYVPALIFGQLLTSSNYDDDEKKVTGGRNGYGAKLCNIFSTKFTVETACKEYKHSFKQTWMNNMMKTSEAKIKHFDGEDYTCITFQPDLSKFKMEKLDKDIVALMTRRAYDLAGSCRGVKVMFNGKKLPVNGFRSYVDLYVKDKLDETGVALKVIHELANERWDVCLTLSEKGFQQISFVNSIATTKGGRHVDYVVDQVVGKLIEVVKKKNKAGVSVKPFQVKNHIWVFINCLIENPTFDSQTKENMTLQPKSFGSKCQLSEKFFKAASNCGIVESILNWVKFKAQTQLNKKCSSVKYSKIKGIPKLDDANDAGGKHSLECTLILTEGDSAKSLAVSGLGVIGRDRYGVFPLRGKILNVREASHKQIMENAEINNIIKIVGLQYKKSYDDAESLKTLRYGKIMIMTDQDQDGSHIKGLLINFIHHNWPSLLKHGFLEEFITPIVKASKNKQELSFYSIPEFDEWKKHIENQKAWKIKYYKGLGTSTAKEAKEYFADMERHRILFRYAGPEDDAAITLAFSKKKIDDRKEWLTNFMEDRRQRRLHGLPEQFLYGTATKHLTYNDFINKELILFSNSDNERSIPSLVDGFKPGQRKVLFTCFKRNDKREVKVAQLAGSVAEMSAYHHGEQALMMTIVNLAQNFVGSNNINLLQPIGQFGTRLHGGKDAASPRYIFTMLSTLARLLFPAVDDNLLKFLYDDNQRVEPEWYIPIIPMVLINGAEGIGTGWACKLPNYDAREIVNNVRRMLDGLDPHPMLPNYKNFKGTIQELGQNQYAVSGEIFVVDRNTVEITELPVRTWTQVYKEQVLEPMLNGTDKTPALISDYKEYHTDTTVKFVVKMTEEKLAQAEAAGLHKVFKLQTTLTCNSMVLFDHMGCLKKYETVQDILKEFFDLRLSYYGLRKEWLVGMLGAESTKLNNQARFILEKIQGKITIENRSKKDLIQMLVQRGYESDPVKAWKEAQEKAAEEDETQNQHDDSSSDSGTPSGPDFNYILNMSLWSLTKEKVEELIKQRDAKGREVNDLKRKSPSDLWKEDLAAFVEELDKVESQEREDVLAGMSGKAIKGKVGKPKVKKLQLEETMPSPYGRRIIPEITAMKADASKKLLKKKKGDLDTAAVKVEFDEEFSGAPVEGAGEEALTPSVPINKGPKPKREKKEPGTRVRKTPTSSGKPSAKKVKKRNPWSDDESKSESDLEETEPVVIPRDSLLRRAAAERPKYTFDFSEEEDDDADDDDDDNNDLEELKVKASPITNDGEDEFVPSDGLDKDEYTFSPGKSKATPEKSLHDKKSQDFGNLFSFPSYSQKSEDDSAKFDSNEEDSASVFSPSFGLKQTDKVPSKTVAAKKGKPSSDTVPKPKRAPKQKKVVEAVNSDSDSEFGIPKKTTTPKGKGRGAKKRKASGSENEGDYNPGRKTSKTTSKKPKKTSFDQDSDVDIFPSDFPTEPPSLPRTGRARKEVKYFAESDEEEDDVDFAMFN
Experimental: (§1) Various β-carboline derivatives of compounds of Formula I above were evaluated for their antineoplastic activities and for their ability to preferentially poison Top2 isozymes. These compounds (i.e. those in Table 1 below) were also evaluated for Top2 isozyme-specific poisoning using the in vitro DNA cleavage assay described by Bodley et al. In the studies, purified recombinant human Top2 isozymes were used.
(§2) Reactions were terminated with SDS (final 1%) and digested with proteinase K (100 μg/ml at 50° C. for 1 hr). After adding gel loading solution, the reaction mixtures were analyzed by agarose gel electrophoresis. Gel was dried and exposed to x-ray films for visualization.
(§3) In certain preferred embodiments, the methods for identifying Top2α preferential poisons include using in vitro DNA cleavage assays. In the in vitro DNA cleavage assay, compounds as potential Top2 poisons are tested for their isozyme specificities through this assay using purified recombinant human Top2α (“hTop2α”) and human Top2β (“h Top2β”) isozymes. In this assay, the ability of various Top2 poisons to induce Top2 isozyme-mediated DNA cleavage of ^32P end-labeled linearized plasmid DNA was assessed. Thus, the relative specificity of various Top2 poisons against Top2 isozymes can be qualitatively determined based on the depletion of band intensities and/or the intensities of bands representing the cleavage products.

[2] = system: A549 lung carcinoma; experiment: Cytotoxicity IC50 against A549 lung carcinoma; type: cell-based
[3] = target: purified recombinant human Top2α (Homo sapiens, UniProt P11388); experiment: In vitro DNA cleavage assay (Bodley et al.), Top2α; type: biochemical; settings: as stated in Table 2
Chain of purified recombinant human Top2α (P11388 whole entry): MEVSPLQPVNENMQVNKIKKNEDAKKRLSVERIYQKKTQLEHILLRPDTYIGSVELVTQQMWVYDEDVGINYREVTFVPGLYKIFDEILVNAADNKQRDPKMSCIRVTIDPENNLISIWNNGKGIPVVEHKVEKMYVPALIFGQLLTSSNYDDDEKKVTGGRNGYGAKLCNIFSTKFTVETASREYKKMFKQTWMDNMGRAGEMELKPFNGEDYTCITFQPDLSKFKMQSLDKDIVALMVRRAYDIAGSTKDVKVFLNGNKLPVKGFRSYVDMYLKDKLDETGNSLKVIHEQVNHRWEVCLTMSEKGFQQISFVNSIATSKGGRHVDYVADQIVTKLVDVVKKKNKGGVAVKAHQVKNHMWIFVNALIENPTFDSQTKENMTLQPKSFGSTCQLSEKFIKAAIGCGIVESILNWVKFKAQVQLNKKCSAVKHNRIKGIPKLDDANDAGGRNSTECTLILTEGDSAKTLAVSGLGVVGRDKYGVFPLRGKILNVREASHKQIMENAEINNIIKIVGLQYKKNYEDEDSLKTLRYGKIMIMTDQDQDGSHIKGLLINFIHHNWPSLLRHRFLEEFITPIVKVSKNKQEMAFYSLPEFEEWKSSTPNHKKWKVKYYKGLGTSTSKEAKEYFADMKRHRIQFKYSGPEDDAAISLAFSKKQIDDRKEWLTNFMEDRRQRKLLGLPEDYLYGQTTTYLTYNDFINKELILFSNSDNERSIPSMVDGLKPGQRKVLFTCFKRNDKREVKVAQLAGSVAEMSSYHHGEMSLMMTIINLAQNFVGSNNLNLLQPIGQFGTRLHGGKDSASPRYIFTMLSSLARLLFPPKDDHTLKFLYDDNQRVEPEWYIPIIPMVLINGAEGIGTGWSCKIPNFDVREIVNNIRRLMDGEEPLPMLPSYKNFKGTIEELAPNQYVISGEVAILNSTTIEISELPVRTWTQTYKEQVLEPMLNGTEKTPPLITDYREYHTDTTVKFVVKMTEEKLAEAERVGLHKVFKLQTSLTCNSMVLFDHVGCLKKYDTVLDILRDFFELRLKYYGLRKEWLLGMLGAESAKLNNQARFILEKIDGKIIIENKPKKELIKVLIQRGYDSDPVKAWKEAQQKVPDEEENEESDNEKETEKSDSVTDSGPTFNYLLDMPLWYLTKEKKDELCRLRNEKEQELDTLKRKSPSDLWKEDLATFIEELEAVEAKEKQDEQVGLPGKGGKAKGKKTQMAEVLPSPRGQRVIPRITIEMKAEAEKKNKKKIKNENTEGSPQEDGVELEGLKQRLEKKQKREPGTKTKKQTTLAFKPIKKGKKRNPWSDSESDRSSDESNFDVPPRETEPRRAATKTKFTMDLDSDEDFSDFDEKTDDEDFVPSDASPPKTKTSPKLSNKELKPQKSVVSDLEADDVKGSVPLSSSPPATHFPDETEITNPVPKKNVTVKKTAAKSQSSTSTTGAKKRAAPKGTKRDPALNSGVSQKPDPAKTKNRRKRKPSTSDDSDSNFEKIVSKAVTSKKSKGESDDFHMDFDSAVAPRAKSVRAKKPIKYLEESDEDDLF
Experimental: as §1, §2, §3

[4] = system: H9C2 cardiomyocytes; experiment: γ-H2AX DNA damage signal by Western blotting; type: cell-based; settings: for effect on doxorubicin-induced γ-H2AX: ROS scavenger 100 μg/ml, added 30 min prior to doxorubicin
Experimental: Cell lysates were analyzed by Western blotting using anti-γ-H2AX or anti-α-tubulin antibody (for assessing protein loading). […] Cells were then lysed and analyzed by Western blotting using anti-γ-H2AX or anti-α-tubulin antibody. […] Cells were then lysed and analyzed by Western blotting using anti-γ-H2AX or anti-α-tubulin antibody.
(§4) Vitamin C and NAC were added 30 min prior to doxorubicin. Cell lysates were then analyzed by Western blotting using anti-γ-H2AX or anti-α-tubulin antibody. […] Cell lysates were then analyzed by Western blotting (upper panel) using anti-γ-H2AX or anti-α-tubulin antibody. Quantification of γ-H2AX signals is shown in the lower panel. C, H9C2 cells were treated with 0.1% DMSO (labeled DMSO), bortezomib (1 μM) or MG132 (4 μM) for 30 min, followed by co-treatment with either 0.1% DMSO (labeled control) or 0.5 μM doxorubicin (labeled Doxo) for 1.5 hrs. Neutral comet assay was then performed as described in Materials and Methods. The average comet tail moments were plotted as histograms (mean±SEM). *p-value<0.001, t-test.

[5] = system: melanomas in the skin of DMBA-initiated TOP2β+ and skin-specific top2β knockout mice; experiment: Carcinogenesis assay using a mouse skin model; type: in vivo
From the text: Skin-specific top2β knockout mice and their TOP2β^+ controls were derived from the top2β^+/flox2 and top2β^flox2/flox2 lines previously reported. The top2β^flox2 allele contains two loxP sites flanking three Top2β exons that encode a region of TopIIβ containing the active-site tyrosyl residue; this allele expresses wild-type TopIIβ, but is converted to a null allele top2β^Δ2 upon exposure to Cre recombinase. Skin-specific deletion within the floxed top2β allele is achieved by crossing the top2β^flox2 lines with mice expressing Cre recombinase from the keratin 14 promoter (kindly provided by Andrew P. McMahon, Harvard University). The K14-Cre transgenic mouse line expresses Cre in the keratinocytes of the epidermis and the hair follicles during prenatal and postnatal development. Mice with the genotype K14-Cre top2β^flox2/flox2, K14-Cre top2β^+/flox2, top2β^flox2/flox2 and top2β^+/flox2 were generated and used in this study; with the exception of K14-Cre top2β^flox2/flox2 mice, which lack TopIIβ in skin cells, all the others are phenotypically Top2β^+ in all tissues.
Seven-week old skin-specific top2β knockout mice and their TOP2β^+ controls were used in the study. The back of each mouse was shaved two days prior to treatment. The tumor initiator DMBA (1 μmol in 100 μl of DMSO) was applied once in the first week, followed by various treatments (two applications per week) for six groups of animals: Group 1, DMSO (100 μl), 5 applications; Group 2, VP-16 (10 μmol in 100 μl DMSO), 5 applications; Group 3, VP-16 (20 μmol in 200 μl of DMSO), 3 applications; Group 4, the tumor promoter TPA (phorbol 12-tetradecanoate 13-acetate, 17 nmol in 100 μl DMSO), 8 applications; Group 5, VP-16 (5 μmol in 100 μl DMSO), 5 application; Group 6, VP-16 (5 μmol in 100 μl DMSO), 10 applications. Mice were examined every week for appearance of melanomas on their skins. The number of melanomas visibly notable was scored at the end of the 16th week. The average numbers of tumors induced in different treatment groups were compared using Student's t-test.

[6] = system: Top2β+/− and Top2β−/− MEFs; experiment: 4-day MTT assay in transformed MEFs; type: cell-based, mouse; settings: triplicates
Experimental: (§5) Primary MEFs were isolated from E13.5 Top2β^+/+, Top2β^+/Δ2 and Top2β^Δ2/Δ2 mouse embryos, as described (the Top2β^Δ2 allele contains a deletion in the coding region of the active-site tyrosyl residue). SV40-transformed MEFs were obtained by transformation with pAN2 DNA as described. Cells were maintained in DMEM supplemented with 10% FetalPlex animal serum complex (Gemini Bio-Products), L-glutamine (2 mM), penicillin (100 units/ml), and streptomycin (100 μg/ml) in a 37° C. incubator with 5% CO2. PC12 cells were first clonally selected and then used to generate Top2β-shRNA and control-shRNA knockdown cells. A rat Top2β-shRNA sequence (5′-[…]-3′) was generated based on the 643-bp partial rat TopIki cDNA sequence (GenBank™ accession number D14046). Duplex (5′-[…]-3′) DNA was made and cloned into the LentiLox 3.7 vector (obtained from Dr. van Parijs, MIT). The control-shRNA sequence (5′-[…]-3′) was created by altering three nucleotides in the rat Top2β-shRNA sequence (underlined). The duplex (5′-[…]-3′) DNA was cloned into the LentiLox 3.7 vector. […]
(§6) Top2β contributes minimally to VP-16 cytotoxicity in transformed cells. […] To test if Top2β is also important for VP-16 cytotoxicity, we determined the IC50 of VP-16 in two pairs of transformed Top2β knockout/knockdown cells using 4-day MTT assay (in triplicates). […]

[7] = system: control-shRNA-PC12 and Top2β-shRNA-PC12 cells; experiment: 4-day MTT assay in PC12 knockdown cells; type: cell-based, rat
Experimental: as §5, §6

[8] = system: H9C2 cardiomyocytes; type: cell-based; settings: bortezomib 1 μM or MG132 4 μM co-treatment, 0.5 μM doxorubicin, p<0.001
Experimental: as §4
The amount of Top2 cleavage complexes was measured by a band depletion assay as described in Materials and Methods. Cells were lysed either immediately or after reversal of the Top2 cleavage complexes (labeled R+250). Cell lysates were analyzed by Western blotting using anti-Top2α/Top2β or anti-α-tubulin antibody. […] Cells were then lysed and protein levels of Top2α, and Top2β isozymes were determined by Western blotting. […] Cell lysates were immunoblotted using anti-Top2β antibody. D, H9C2 cells were treated with ICRF187 (100 μM) for 4 hrs, followed by treatment with doxorubicin (Doxo, 0, 0.5 and 1 μM) for 1.5 hrs. […]

[9] = system: Top2β; experiment: Top2β protein level by Western blotting in H9C2 cells; type: cell-based; settings: 1 μM co-treatment
Experimental: The amount of Top2 cleavage complexes was measured by a band depletion assay as described in Materials and Methods. Cells were lysed either immediately or after reversal of the Top2 cleavage complexes (labeled R+250). Cell lysates were analyzed by Western blotting using anti-Top2α/Top2β or anti-α-tubulin antibody. […] Cells were then lysed and protein levels of Top2α, and Top2β isozymes were determined by Western blotting. […] Cell lysates were immunoblotted using anti-Top2β antibody. D, H9C2 cells were treated with ICRF187 (100 μM) for 4 hrs, followed by treatment with doxorubicin (Doxo, 0, 0.5 and 1 μM) for 1.5 hrs. Neutral comet assay was then performed as described in Materials and Methods. The average comet tail moments were plotted as histograms (mean±SEM). * p-value<0.001, t-test.

Compound	Poisoning activity against Top2β [1]	activity against Top2β [1]	IC50 [2]	activity against Top2α [3]	also measured
1,2-dibenzyl-9-fluorobenzyl-9H-pyrido[3,4-b]indol-2-ium [compound 9]	−	non-detectable	4200 nM	roughly 20 fold	
2,9-dibenzyl-1-chlorophenyl-9H-pyrido[3,4-b]indol-2-ium [compound 8]	−	non-detectable	6100 nM	roughly 20 fold	
9-butyl-1-chlorobenzyl-2-(3-phenylpropyl)-9H-pyrido[3,4-b]indol-2-ium [compound 10]	+	10 fold	< 1700 nM	roughly 20 fold	
COc1cccc2c1C(=O)c1c(O)c3c(c(O)c1C2=O)C[C@@](O)(C(=O)CO)C[C@@H]3O[C@H]1C[C@H](N)[C@H](O)[C@H](C)O1 [Doxorubicin, doxorubicin]					induction of γ-H2AX ([4]; 0.1-10 μM, 1 hr): concentration-dependent up to 1 μM
CC(=O)N[C@@H](CS)C(=O)O [N-Acetyl Cysteine]					effect on doxorubicin-induced γ-H2AX [4]: unaffected
CCCCCCCCCCCCCC(=O)O[C@@H]1[C@@H](C)[C@@]2(O)[C@@H](C=C(CO)C[C@]3(O)C(=O)C(C)=C[C@@H]23)[C@@H]2C(C)(C)[C@]12OC(C)=O [TPA, phorbol 12-tetradecanoate 13-acetate]					ratio of average number of melanomas per mouse, Top2β+ versus Top2β− mice ([5]; Group 4, TPA treatment): 1.3; increase in the average number of melanomas per mouse versus DMSO ([5]; TOP2β+ mice, Group 4, 17 nmol × 8 applications): 130%; increase in skin melanoma versus DMSO ([5]; TOP2β− mice, Group 4, 17 nmol × 8 applications): 150%
COc1cc([C@@H]2c3cc4c(cc3[C@@H](O[C@@H]3O[C@@H]5CO[C@@H](C)O[C@H]5[C@H](O)[C@H]3O)[C@H]3COC(=O)[C@H]23)OCO4)cc(OC)c1O [VP16, etoposide]					IC50 ([6]; Top2β+/− MEFs): 38 ± 7 nM; IC50 ([6]; Top2β−/− MEFs): 40 ± 6 nM; more melanomas in TOP2β+ mice than in skin-specific Top2β knockout mice ([5]; mouse, in vivo): 2-13 fold; IC50 ([7]; Top2β-shRNA-PC12 cells): 1600 ± 100 nM; IC50 ([7]; control-shRNA-PC12 cells): 1900 ± 100 nM
CC(C)C[C@H](NC(=O)[C@H](Cc1ccccc1)NC(=O)c1cnccn1)B(O)O [bortezomib]					effect on doxorubicin-induced comet tail moment [8]: significantly reduced; effect on dexrazoxane-induced degradation of Top2β [9]: abolished
CCCCOc1ccc2c3cc[n+](Cc4ccccc4)c(C)c3n(CC(C)C)c2c1 [compound 3, 2-benzyl-7-butoxy-9-isobutyl-1-methyl-9H-pyrido[3,4-b]indol-2-ium]	−	non-detectable	4600 nM	roughly 20 fold	
Cc1c2c(cc[n+]1Cc1ccccc1)c1ccc(OCC(C)C)cc1n2CC(C)C [compound 4, 2-benzyl-7-isobutoxy-9-isobutyl-1-methyl-9H-pyrido[3,4-b]indol-2-ium]	−	non-detectable	5300 nM	roughly 20 fold	
O=C1O[C@H]([C@@H](O)CO)C(O)=C1O [vitamin C]					effect on doxorubicin-induced γ-H2AX [4]: unaffected
ICRF-193					effect on doxorubicin (0.5 μM)- and VP-16 (10 μM)-induced γ-H2AX [4]: abolished
